Data reported in ChEMBL document CHEMBL4616595, “Targeted suppression of metastasis regulatory transcription factor SOX2 in various cancer cell lines using a sequence-specific designer pyrrole-imidazole polyamide” (Bioorg Med Chem, 2020).
The source made the active and inactive calls. No cut-off for these calls is given here.

Legend:
SOX2 promoter DNA [1] = experiment: Binding affinity to SOX2 promoter 5'-CTTTGTT-3' DNA in human SW620 cells assessed as downregulation SALL4 mRNA expression incubated for 48 hrs by qRT-PCR analysis; format: cell-based; details: SW-620
SW-620 [2] = experiment: Cell cycle arrest in human SW620 cells assessed as increase in accumulation at sub-G1/G1 phase at 2 uM to 5 uM after 48 hrs by propidium iodide staining based flow cytometry analysis; format: functional
SOX2 promoter DNA [3] = experiment: Binding affinity to SOX2 promoter 5'-CTTTGTT-3' DNA in human SW620 cells assessed as reduction in SOX2 mRNA expression incubated for 48 hrs by qRT-PCR analysis; format: cell-based; details: SW-620
SOX2 promoter DNA [4] = experiment: Binding affinity to SOX2 promoter 5'-CTTTGTT-3' DNA (unknown origin) transfected in human SW620 cells at 2 to 10 uM incubated for 24 hrs by 6xO/s-Luc reporter gene based Steady-Glo luciferase assay; format: cell-based; details: SW-620
SOX2 promoter DNA [5] = experiment: Binding affinity to SOX2 promoter 5'-CTTTGTT-3' DNA in human MCF7 cells assessed as reduction in SOX2 mRNA expression incubated for 48 hrs by qRT-PCR analysis; format: cell-based
SOX2 promoter DNA [6] = experiment: Binding affinity to SOX2 promoter 5'-CTTTGTT-3' DNA in human U2OS cells assessed as reduction in SOX2 mRNA expression incubated for 48 hrs by qRT-PCR analysis; format: cell-based
SOX2 promoter DNA [7] = experiment: Binding affinity to SOX2 promoter 5'-CTTTGTT-3' DNA in human MKN45 cells assessed as reduction in SOX2 protein level incubated for 48 hrs by immunostaining based FACS analysis; format: cell-based; details: MKN-45
SOX2 promoter DNA [8] = experiment: Binding affinity to SOX2 promoter 5'-CTTTGTT-3' DNA in human U2OS cells assessed as reduction in SOX2 protein level incubated for 48 hrs by immunostaining based FACS analysis; format: cell-based
SW-620 [9] = experiment: Antiinvasive activity in human SW620 cells assessed as reduction in cell invasion at 5 uM incubated for 72 hrs by crystal violet staining based assay relative to untreated control; format: functional
SOX2 promoter DNA [10] = experiment: Binding affinity to SOX2 promoter 5'-CTTTGTT-3' DNA in human SW620 cells assessed as down regulation of Cyclin D1 gene expression at 2 uM incubated for 48 hrs by Cy3-labelled cRNA-based microarray analysis; format: cell-based; details: SW-620
SOX2 promoter DNA [11] = experiment: Binding affinity to SOX2 promoter 5'-CTTTGTT-3' DNA in human SW620 cells assessed as down regulation of ALDH1A1 gene expression at 2 uM incubated for 48 hrs by Cy3-labelled cRNA-based microarray analysis; format: cell-based; details: SW-620
SOX2 promoter DNA [12] = experiment: Binding affinity to SOX2 promoter 5'-CTTTGTT-3' DNA in human SW620 cells assessed as down regulation of POU5F1 gene expression at 2 uM incubated for 48 hrs by Cy3-labelled cRNA-based microarray analysis; format: cell-based; details: SW-620
SOX2 promoter DNA [13] = experiment: Binding affinity to SOX2 promoter 5'-CTTTGTT-3' DNA in human SW620 cells assessed as down regulation of VIM mRNA expression at 2 uM incubated for 48 hrs by qRT-PCR analysis; format: cell-based; details: SW-620
SOX2 promoter DNA [14] = experiment: Binding affinity to SOX2 promoter 5'-CTTTGTT-3' DNA in human SW620 cells assessed as down regulation of JAG1 mRNA expression at 2 uM incubated for 48 hrs by qRT-PCR analysis; format: cell-based; details: SW-620
SOX2 promoter DNA [15] = experiment: Binding affinity to SOX2 promoter 5'-CTTTGTT-3' DNA in human SW620 cells assessed as down regulation of ZEB2 mRNA expression at 2 uM incubated for 48 hrs by qRT-PCR analysis; format: cell-based; details: SW-620
SOX2 promoter DNA [16] = experiment: Binding affinity to SOX2 promoter 5'-CTTTGTT-3' DNA in human SW620 cells assessed as down regulation of NFKB1 mRNA expression at 2 uM incubated for 48 hrs by qRT-PCR analysis; format: cell-based; details: SW-620
SOX2 promoter DNA [17] = experiment: Binding affinity to SOX2 promoter 5'-CTTTGTT-3' DNA in human SW620 cells assessed as down regulation of stemness associated PTCH1 mRNA expression at 2 uM incubated for 48 hrs by qRT-PCR analysis; format: cell-based; details: SW-620
SOX2 promoter DNA [18] = experiment: Binding affinity to SOX2 promoter 5'-CTTTGTT-3' DNA in human SW620 cells assessed as downregulation WNT2B mRNA expression incubated for 48 hrs by qRT-PCR analysis; format: cell-based; details: SW-620
SOX2 promoter DNA [19] = experiment: Binding affinity to SOX2 promoter 5'-CTTTGTT-3' DNA in human SW620 cells assessed as downregulation DVL2 mRNA expression incubated for 48 hrs by qRT-PCR analysis; format: cell-based; details: SW-620
MCF7 [20] = experiment: Cell cycle arrest in human MCF7 cells assessed as increase in accumulation at sub-G1/G1 phase at 2 uM to 5 uM after 48 hrs by propidium iodide staining based flow cytometry analysis; format: functional
SW-620 [21] = experiment: Cell cycle arrest in human SW620 cells assessed as reduction in accumulation at S phase at 2 uM to 5 uM after 48 hrs by propidium iodide staining based flow cytometry analysis; format: functional
MKN-45 [22] = experiment: Cell cycle arrest in human MKN45 cells assessed as reduction in accumulation at S phase at 2 uM to 5 uM after 48 hrs by propidium iodide staining based flow cytometry analysis; format: functional
MKN-45 [23] = experiment: Cell cycle arrest in human MKN45 cells assessed as reduction in accumulation at G2/M phase at 2 uM to 5 uM after 48 hrs by propidium iodide staining based flow cytometry analysis; format: functional
MCF7 [24] = experiment: Cell cycle arrest in human MCF7 cells assessed as reduction in accumulation at G2/M phase at 2 uM to 5 uM after 48 hrs by propidium iodide staining based flow cytometry analysis; format: functional
SOX2 promoter DNA [25] = experiment: Binding affinity to SOX2 promoter 5'-CTTTGTT-3' DNA in human SW620 cells assessed as upregulation of CDKN2B mRNA expression incubated for 48 hrs by qRT-PCR analysis; format: cell-based; details: SW-620
SOX2 promoter DNA [26] = experiment: Binding affinity to SOX2 promoter 5'-CTTTGTT-3' DNA in human SW620 cells assessed as down regulation of CDC42 mRNA expression incubated for 48 hrs by qRT-PCR analysis; format: cell-based; details: SW-620
SW-620 [27] = experiment: Cytotoxicity against human SW620 cells assessed as reduction in cell viability incubated for 48 hrs by MTT assay; format: functional, cell-based
MKN-45 [28] = experiment: Cytotoxicity against human MKN45 cells assessed as reduction in cell viability incubated for 48 hrs by MTT assay; format: functional, cell-based
SW-620 [29] = experiment: Up regulation of p27kip1 mRNA expression in human SW620 cells incubated for 48 hrs by qRT-PCR analysis; format: functional, cell-based
SW-620 [30] = experiment: Up regulation of TP73 mRNA expression in human SW620 cells incubated for 48 hrs by qRT-PCR analysis; format: functional, cell-based
SW-620 [31] = experiment: Up regulation of PUMA mRNA expression in human SW620 cells incubated for 48 hrs by qRT-PCR analysis; format: functional, cell-based
SW-620 [32] = experiment: Up regulation of GADD45A mRNA expression in human SW620 cells incubated for 48 hrs by qRT-PCR analysis; format: functional, cell-based
SW-620 [33] = experiment: Up regulation of FAS mRNA expression in human SW620 cells incubated for 48 hrs by qRT-PCR analysis; format: functional, cell-based
SW-620 [34] = experiment: Up regulation of caspase-3 mRNA expression in human SW620 cells incubated for 48 hrs by qRT-PCR analysis; format: functional, cell-based

For `CC(=O)Nc1cc(C(=O)Nc2cc(C(=O)Nc3cc(C(=O)NCCC(=O)Nc4cn(C)c(C(=O)Nc5cc(C(=O)NCCCC(=O)Nc6cc(C(=O)Nc7cc(C(=O)NCCC(=O)Nc8cc(C(=O)Nc9cc(C(=O)Nc%10cn(C)c(C(=O)NCCCN(C)C)n%10)n(C)c9)n(C)c8)n(C)c7)n(C)c6)n(C)c5)n4)n(C)c3)n(C)c2)n(C)c1`, the Activity (SOX2 promoter DNA [1]) was “Active”, the Activity (SW-620 [2]) was “Active” and the Activity (SOX2 promoter DNA [3]) was “Active”. The Activity (SOX2 promoter DNA [4]) was “Active”, the Activity (SOX2 promoter DNA [5]) was “Active” and the Activity (SOX2 promoter DNA [6]) was “Active”. For the same compound, the Activity (SOX2 promoter DNA [7]) was “Dose-dependent effect”, the Activity (SOX2 promoter DNA [8]) was “Dose-dependent effect” and the “fold change (FC)” value (SW-620 [9]) was 4. The Activity (SOX2 promoter DNA [10]) was “Active”, the Activity (SOX2 promoter DNA [11]) was “Active” and the Activity (SOX2 promoter DNA [12]) was “Active”. For the same compound, the Activity (SOX2 promoter DNA [13]) was “Active”, the Activity (SOX2 promoter DNA [14]) was “Active” and the Activity (SOX2 promoter DNA [15]) was “Active”. For the same compound, the Activity (SOX2 promoter DNA [16]) was “Active”, the Activity (SOX2 promoter DNA [17]) was “Active” and the Activity (SOX2 promoter DNA [18]) was “Active”. For the same compound, the Activity (SOX2 promoter DNA [19]) was “Active”, the Activity (MCF7 [20]) was “Active” and the Activity (SW-620 [21]) was “Active”. The Activity (MKN-45 [22]) was “Active”, the Activity (MKN-45 [23]) was “Active” and the Activity (MCF7 [24]) was “Active”. For the same compound, the Activity (SOX2 promoter DNA [25]) was “Active”, the Activity (SOX2 promoter DNA [26]) was “Active” and the Activity (SW-620 [27]) was “Dose-dependent effect”. The Activity (MKN-45 [28]) was “Dose-dependent effect”, the Activity (SW-620 [29]) was “Active” and the Activity (SW-620 [30]) was “Active”. For the same compound, the Activity (SW-620 [31]) was “Active”, the Activity (SW-620 [32]) was “Active” and the Activity (SW-620 [33]) was “Active”. For the same compound, the Activity (SW-620 [34]) was “Active”.
